The target of series [1] is T1, reuptake of noradrenaline (NA) in synaptosomes (Rattus norvegicus, UniProt Q9WTR4).
T1 construct: in synaptosomes as described in WO 97/16451; from tissue
Briefly: Inhibition of noradrenaline reuptake in synaptosomes. In kind it is biochemical. The method, then: (§1) Compounds were tested for their ability to inhibit the reuptake of the monoamine neurotransmitters dopamine (DA) noradrenaline (NA) and serotonine (5-HT) in synaptosomes as described in WO 97/16451.
(§2) The test values are given as IC50 (the concentration (μM) of the test substance which inhibits the specific binding of ^3H-DA, ^3H-NA, or ^3H-5-HT by 50%).

Series [2] concerns the target T2, reuptake of serotonine (5-HT) in synaptosomes (Rattus norvegicus, UniProt P31652).
T2 construct: in synaptosomes as described in WO 97/16451; from tissue
Briefly: Inhibition of serotonin reuptake in synaptosomes. In kind it is biochemical. The method, then:
as §1, §2

Series [3] addresses T3, reuptake of dopamine (DA) in synaptosomes (Rattus norvegicus, UniProt P23977).
T3 construct: in synaptosomes as described in WO 97/16451; from tissue
Briefly: Inhibition of dopamine reuptake in synaptosomes. The class given is biochemical. The procedure:
as §1, §2

In general, pIC50 refers to the negative decadic logarithm of the IC50, by convention in mol/L. As usually defined, the melting point is the temperature, or range, at which the solid turns liquid.

pIC50: −log10 of the molar value. Where a name gives a salt, the structure may show the parent alone. A value given as a limit tells only on which side of the number the result lay.

T1 sequence (Q9WTR4 1-597): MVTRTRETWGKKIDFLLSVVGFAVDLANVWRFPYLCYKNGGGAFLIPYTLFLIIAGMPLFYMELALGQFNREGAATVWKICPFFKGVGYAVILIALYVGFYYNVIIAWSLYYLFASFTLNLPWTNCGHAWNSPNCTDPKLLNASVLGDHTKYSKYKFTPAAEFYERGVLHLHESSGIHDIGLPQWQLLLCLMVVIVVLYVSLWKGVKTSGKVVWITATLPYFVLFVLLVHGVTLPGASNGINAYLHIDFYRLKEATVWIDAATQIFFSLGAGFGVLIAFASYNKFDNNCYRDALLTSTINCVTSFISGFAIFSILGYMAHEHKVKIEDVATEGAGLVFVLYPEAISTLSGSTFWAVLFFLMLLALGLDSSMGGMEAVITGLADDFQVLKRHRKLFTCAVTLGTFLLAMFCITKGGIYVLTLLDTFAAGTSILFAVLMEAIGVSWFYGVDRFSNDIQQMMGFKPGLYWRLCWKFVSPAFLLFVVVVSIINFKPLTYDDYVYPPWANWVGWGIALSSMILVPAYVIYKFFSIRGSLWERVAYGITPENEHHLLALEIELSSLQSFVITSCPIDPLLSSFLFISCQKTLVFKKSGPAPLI
T2 sequence (P31652 whole entry): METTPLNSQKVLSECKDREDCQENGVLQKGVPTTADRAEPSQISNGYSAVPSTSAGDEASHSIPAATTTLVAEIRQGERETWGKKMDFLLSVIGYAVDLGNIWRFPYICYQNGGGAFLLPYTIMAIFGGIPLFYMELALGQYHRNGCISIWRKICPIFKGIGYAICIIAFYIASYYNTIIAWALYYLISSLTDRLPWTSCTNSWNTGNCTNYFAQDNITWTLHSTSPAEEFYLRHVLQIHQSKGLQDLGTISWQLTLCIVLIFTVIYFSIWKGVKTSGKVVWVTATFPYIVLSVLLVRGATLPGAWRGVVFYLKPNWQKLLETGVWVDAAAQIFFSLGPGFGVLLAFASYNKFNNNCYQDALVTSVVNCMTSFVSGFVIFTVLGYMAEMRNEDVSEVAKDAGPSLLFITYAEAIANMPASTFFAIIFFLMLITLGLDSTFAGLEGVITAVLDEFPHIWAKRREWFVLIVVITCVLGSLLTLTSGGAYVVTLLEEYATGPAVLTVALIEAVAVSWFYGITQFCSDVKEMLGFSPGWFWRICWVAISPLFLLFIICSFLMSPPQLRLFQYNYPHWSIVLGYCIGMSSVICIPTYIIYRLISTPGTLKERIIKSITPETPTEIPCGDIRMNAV
T3 sequence (P23977 whole entry): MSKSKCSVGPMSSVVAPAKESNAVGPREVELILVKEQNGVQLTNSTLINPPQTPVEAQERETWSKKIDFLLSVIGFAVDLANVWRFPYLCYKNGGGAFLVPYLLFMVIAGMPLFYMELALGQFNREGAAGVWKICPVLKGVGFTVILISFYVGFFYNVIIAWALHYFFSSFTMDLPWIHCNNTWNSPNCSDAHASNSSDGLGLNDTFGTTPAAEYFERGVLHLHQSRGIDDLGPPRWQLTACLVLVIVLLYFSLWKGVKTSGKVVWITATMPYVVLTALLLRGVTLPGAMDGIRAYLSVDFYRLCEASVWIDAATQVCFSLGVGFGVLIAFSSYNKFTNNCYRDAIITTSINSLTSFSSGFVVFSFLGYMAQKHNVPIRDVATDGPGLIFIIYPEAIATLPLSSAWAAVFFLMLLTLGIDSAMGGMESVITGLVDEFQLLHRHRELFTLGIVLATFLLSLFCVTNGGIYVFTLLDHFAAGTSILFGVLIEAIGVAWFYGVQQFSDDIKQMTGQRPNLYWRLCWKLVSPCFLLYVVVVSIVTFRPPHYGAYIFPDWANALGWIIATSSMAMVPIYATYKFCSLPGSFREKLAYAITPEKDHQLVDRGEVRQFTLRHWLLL

Turning to `NC1CCN(c2ccc(Cl)c(Cl)c2)CC1` [1st compound of method A, 1-(3,4-Dichloro-phenyl)-piperidin-4-ylamine], the pIC50 is 6.82 in series [1], 7.57 in series [2] and 6.40 in series [3].

In the case of `NC1CCN(c2ccc(Cl)c(Cl)c2)CC1` (as salt: hydrochloric acid salt) [1st compound of method A, 1-(3,4-Dichloro-phenyl)-piperidin-4-ylamine], the melting point was > 250 °C (dec.).

Turning to `CNC1CCN(c2ccc(Cl)c(Cl)c2)CC1` [1st compound of method B, [1-(3,4-Dichloro-phenyl)-piperidin-4-yl]-methyl-amine], the pIC50 in series [1] is 6.70; in series [2], 7.57; in series [3], 6.42.

Turning to `CNC1CCN(c2ccc(Cl)c(Cl)c2)CC1` (as salt: hydrochloric acid salt) [1st compound of method B, [1-(3,4-Dichloro-phenyl)-piperidin-4-yl]-methyl-amine], the melting point lay within 240 to 244 °C.

The values above are taken from patent publication US20090124663A1, “Novel n-phenyl-piperidine derivatives and their use as monoamine neurotransmitter re-uptake inhibitors” (NeuroSearch A/S, priority 2005, published 2009).
